Laboratory results: ChEMBL document CHEMBL4145514, “Unexplored antifungal activity of linear battacin lipopeptides against planktonic and mature biofilms of C. albicans” (Eur J Med Chem, 2018)
In brackets after ≈: the same amount, converted by molar mass. Activity calls are given as the source filed them. The rule behind the calls is not given here. Bridge positions count the residues as written; N and C are the ends. Square brackets hold non-standard residues; d marks the D form. Peptide text beside a SMILES is read from it. * marks the point of attachment. Myristoyl = CCCCCCCCCCCCCC(=O)*; dDab = NCC[C@@H](N)C(=O)O; X1 = CCC(C)CCC(O)CC(=O)*; Dab = NCC[C@H](N)C(=O)O

Tests used:
Candida albicans [1] = assay: Antifungal activity against Candida albicans SC5314 after 48 hrs; type: functional; details: SC5314, 48 h
Candida albicans [2] = assay: Synergistic antifungal activity against Candida albicans SC5314 after 48 hrs in presence of 400 nmol AmB; type: functional; details: SC5314, 48 h
Candida albicans [3] = assay: Synergistic antifungal activity against Candida albicans SC5314 assessed as FIC index after 48 hrs in presence of 400 nmol AmB; type: functional
Candida albicans [4] = assay: Synergistic antifungal activity against Candida albicans SC5314 after 48 hrs in presence of 800 nmol AmB; type: functional; details: SC5314, 48 h
Candida albicans [5] = assay: Synergistic antifungal activity against Candida albicans SC5314 assessed as FIC index after 48 hrs in presence of 800 nmol AmB; type: functional
Candida albicans [6] = assay: Ratio of MIC for Candida albicans SC5314 to MIC for Candida albicans SC5314 in presence of 400 nmol AmB; type: functional
Candida albicans [7] = assay: Ratio of MIC for Candida albicans SC5314 to MIC for Candida albicans SC5314 in presence of 800 nmol AmB; type: functional
Lipid bilayer = assay: Disruption of phosphatidylcholine/ phosphatidylinositol/phosphatidylethanolamine membrane at 200 uM by colorimetric assay
[8] = Toxicity in iv dosed Kunming mouse assessed as death counted daily for 14 days; type: organism-based; details: in vivo
Erythrocyte = assay: Haemolytic activity in human RBC incubated for 2 hrs; type: ADME, cell-based
HEK293 = assay: Cytotoxicity against HEK293 cells after 48 hrs by MTT assay; type: cell-based; details: human, hek293, 48 h

## CCC(C)CCC(=O)N[C@H](CCN)C(=O)N[C@@H](CCN)C(=O)N[C@@H](CCN)C(=O)N[C@@H](CC(C)C)C(=O)N[C@H](Cc1c[nH]c2ccccc12)C(=O)N[C@@H](CCN)C(=O)N[C@@H](CCN)C(=O)N[C@@H](CC(C)C)C(N)=O (stereo not given in full)
Candida albicans [1]
  MIC: 25 µM (≈ 26.1 µg/mL)

## CCC(C)CCC(=O)N[C@H](CCCCN)C(=O)N[C@@H](CCCCN)C(=O)N[C@@H](CCCCN)C(=O)N[C@@H](CC(C)C)C(=O)N[C@H](Cc1ccccc1)C(=O)N[C@@H](CCCCN)C(=O)N[C@@H](CCCCN)C(=O)N[C@@H](CC(C)C)C(N)=O (stereo not given in full)
Candida albicans [1]
  MIC: > 100 µM

## CC(C)C[C@H](NC(=O)[C@H](CCN)NC(=O)[C@H](CCN)NC(=O)[C@@H](Cc1ccccc1)NC(=O)[C@H](CC(C)C)NC(=O)[C@H](CCN)NC(=O)[C@H](CCN)NC(=O)[C@@H](CCN)NC(=O)[C@H](N)CS)C(N)=O
Candida albicans [1]
  MIC: > 100 µM

## CCC(C)CCC(=O)N[C@H](CCN)C(=O)N[C@@H](CCN)C(=O)N[C@@H](CCN)C(=O)N[C@@H](CC(C)C)C(=O)N[C@H](Cc1ccccc1)C(=O)N[C@@H](CCN)C(=O)N[C@@H](CCN)C(=O)N[C@@H](CC(C)C)C(=O)N[C@H](CCN)C(=O)N[C@@H](CCN)C(=O)N[C@@H](CCN)C(=O)N[C@@H](CC(C)C)C(=O)N[C@H](Cc1ccccc1)C(=O)N[C@@H](CCN)C(=O)N[C@@H](CCN)C(=O)N[C@@H](CC(C)C)C(N)=O (stereo not given in full)
Candida albicans [1]
  MIC: 12.5 µM (≈ 23.5 µg/mL)
Candida albicans [2]
  MIC: 3.12 µM
Candida albicans [3]
  fractional inhibitory concentration index (FICI): 2.24
Candida albicans [4]
  MIC: 1.56 µM
Candida albicans [5]
  fractional inhibitory concentration index (FICI): 1.12
Candida albicans [6]
  Ratio: 4
Candida albicans [7]
  Ratio: 8 - 32

## CCCCC(=O)N[C@H](CCN)C(=O)N[C@@H](CCN)C(=O)N[C@@H](CCN)C(=O)N[C@@H](CC(C)C)C(=O)N[C@H](Cc1ccccc1)C(=O)N[C@@H](CCN)C(=O)N[C@@H](CCN)C(=O)N[C@@H](CC(C)C)C(N)=O
Candida albicans [1]
  MIC: > 100 µM
Lipid bilayer
  Activity: inactive

## CCC(C)CCC(O)CC(=O)N[C@H](CCN)C(=O)N[C@H]1CCNC(=O)[C@H](CC(C)C)NC(=O)[C@H](CCN)NC(=O)[C@H](CCN)NC(=O)[C@@H](Cc2ccccc2)NC(=O)[C@H](CC(C)C)NC(=O)[C@H](CCN)NC1=O (stereo not given in full) (X1-[dDab][Dab][Dab]L[dF][Dab][Dab]L; lactam 2-C)
[8]
  LD50 at 336 h: 6 mg/kg
Erythrocyte
  Activity: > 750 µg/mL
HEK293
  Activity: > 128 µg/mL

## CCC(=O)N[C@H](CCN)C(=O)N[C@@H](CCN)C(=O)N[C@@H](CCN)C(=O)N[C@@H](CC(C)C)C(=O)N[C@H](Cc1ccccc1)C(=O)N[C@@H](CCN)C(=O)N[C@@H](CCN)C(=O)N[C@@H](CC(C)C)C(N)=O
Candida albicans [1]
  MIC: > 100 µM
Lipid bilayer
  Activity: inactive

## CCCCCCCCCCCCCC(=O)N[C@H](CCN)C(=O)N[C@@H](CCN)C(=O)N[C@@H](CCN)C(=O)N[C@@H](CC(C)C)C(=O)N[C@H](Cc1ccccc1)C(=O)N[C@@H](CCN)C(=O)N[C@@H](CCN)C(=O)N[C@@H](CC(C)C)C(N)=O (Myristoyl-[dDab][Dab][Dab]L[dF][Dab][Dab]L-NH2)
Candida albicans [1]
  MIC: 12.5 µM (≈ 13.8 µg/mL)

## CCCCCC(=O)N[C@H](CCN)C(=O)N[C@@H](CCN)C(=O)N[C@@H](CCN)C(=O)N[C@@H](CC(C)C)C(=O)N[C@H](Cc1ccccc1)C(=O)N[C@@H](CCN)C(=O)N[C@@H](CCN)C(=O)N[C@@H](CC(C)C)C(N)=O
Candida albicans [1]
  MIC: 100 µM (≈ 98.9 µg/mL)
Lipid bilayer
  Activity: inactive
